The record followed here is article PMC4621012 (Molecules, 2014).

The target of the experiment is GRK5 (Bos taurus, UniProt P43249). Description: DSF (ThermoFluor, ANS) melting point shift, dose response, reconfirmed by replating; no Kd. It is filed as binding. A general note: Differential scanning fluorimetry follows unfolding on heating by fluorescence.
GRK5, sequence (P43249 whole entry): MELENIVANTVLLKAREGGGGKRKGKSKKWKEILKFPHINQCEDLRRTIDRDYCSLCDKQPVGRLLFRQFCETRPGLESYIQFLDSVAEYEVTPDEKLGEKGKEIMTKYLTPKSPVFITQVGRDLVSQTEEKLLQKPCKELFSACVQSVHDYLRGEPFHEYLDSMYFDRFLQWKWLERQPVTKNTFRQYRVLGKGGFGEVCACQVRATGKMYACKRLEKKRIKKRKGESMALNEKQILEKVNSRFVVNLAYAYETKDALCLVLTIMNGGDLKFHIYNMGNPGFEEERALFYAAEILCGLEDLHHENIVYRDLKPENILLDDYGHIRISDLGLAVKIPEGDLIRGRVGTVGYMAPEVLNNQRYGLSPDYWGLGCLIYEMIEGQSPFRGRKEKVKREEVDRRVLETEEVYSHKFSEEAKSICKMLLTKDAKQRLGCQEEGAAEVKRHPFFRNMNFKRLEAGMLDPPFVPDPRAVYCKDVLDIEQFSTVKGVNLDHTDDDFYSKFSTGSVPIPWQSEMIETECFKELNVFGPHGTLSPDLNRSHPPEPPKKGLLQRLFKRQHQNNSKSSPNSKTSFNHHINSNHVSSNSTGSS

For the molecule `CN[C@@H]1C[C@H]2O[C@@](C)([C@@H]1OC)n1c3ccccc3c3c4c(c5c6ccccc6n2c5c31)C(=O)NC4` [staurosporine], the “DSF (ThermoFluor, ANS) melting point shift, dose response, reconfirmed by replat” value is recorded as “Staurosporine, which served effectively as a positive control, was not analyzed further”.
